Data on one compound can be found in ChEMBL document CHEMBL5512613, “Design and synthesis of novel 3-amino-5-phenylpyrazole derivatives as tubulin polymerization inhibitors targeting the colchicine-binding site” (Eur J Med Chem, 2024).

Data set [1] relates to MCF7. Put plainly: Antiproliferative activity against human MCF7 cells assessed as inhibition of cell growth incubated for 48 hrs by MTT assay. Format: functional, cell-based. The following applies: MCF7, 48 h. For orientation: Tetrazolium assays rely on reduction of a dye to a coloured formazan, in cell work by metabolically active cells.
Another data set relates to A549. Put plainly: Antiproliferative activity against human A549 cells assessed as inhibition of cell growth incubated for 48 hrs by MTT assay. It counts as functional, cell-based. The following applies: A549, 48 h.
The test system of another data set is HT-29. The data set is described as follows: Antiproliferative activity against human HT-29 cells assessed as inhibition of cell growth incubated for 48 hrs by MTT assay. Format: functional, cell-based. The note with it: HT-29, 48 h.
Data set [2] can be described thus: Cytotoxicity against human L02 cells assessed as inhibition of cell growth incubated for 48 hrs by MTT assay. Format: toxicity, cell-based.
For data set [3], the system named is MCF7. Put plainly: Induction of cell cycle arrest in human MCF7 cells assessed as proportion of cells at G1 phase at 6.25 nM incubated for 24 hrs by PI staining based flow cytometry (reference value: 64.5%). Format: functional.
In data set [4] the test system is MCF7. The data set is described as follows: Induction of cell cycle arrest in human MCF7 cells assessed as proportion of cells at G2 phase at 6.25 nM incubated for 24 hrs by PI staining based flow cytometry (reference value: 14.4%). Format: functional.
Data set [5] concerns MCF7. The data set is described as follows: Induction of cell cycle arrest in human MCF7 cells assessed as proportion of cells at G2 phase at 25 nM incubated for 24 hrs by PI staining based flow cytometry (reference value: 14.4%). It counts as functional. (A flow cytometer gives signals particle by particle.)
The subject of data set [6] is MCF7. The data set is described as follows: Induction of cell cycle arrest in human MCF7 cells assessed as proportion of cells at G2 phase at 25 nM incubated for 6 hrs by PI staining based flow cytometry (reference value: 14.4%). Format: functional.
Data set [7] deals with MCF7. The data set is described as follows: Induction of cell cycle arrest in human MCF7 cells assessed as proportion of cells at G1 phase at 25 nM incubated for 12 hrs by PI staining based flow cytometry (reference value: 64.5%). It counts as functional.
For data set [8], the system named is MCF7. Put plainly: Induction of cell cycle arrest in human MCF7 cells assessed as increase in p21 protein expression at 6.25 to 50 nM incubated for 24 hrs by western blot analysis. Format: functional, cell-based. The note with it: dose 6.25-50 nM.
Data set [9] relates to MCF7. The data set is described as follows: Induction of apoptosis in human MCF7 cells at 12.5 to 50 nM incubated for 24 hrs by AnnexinV-FITC/PI staining based flow cytometry. The note with it: dose 12.5-50 nM. Format: functional, cell-based.
For data set [10], the system named is MCF7. The data set is described as follows: Induction of apoptosis in human MCF7 cells assessed as decrease in Bcl-2 protein expression at 6.25 to 50 nM incubated for 24 hrs by western blot analysis. It counts as functional, cell-based. The note with it: dose 6.25-50 nM.
Data set [11] deals with HUVEC. The data set is described as follows: Anti-vascular activity in human HUVEC cells assessed as reduction in length of capillary-like tubules incubated for 6 hrs by Matrigel based inverted fluorescence microscopy. The following applies: dose 6.25-50 nM. Format: functional, cell-based.
Data set [12] has as its system HUVEC. The data set is described as follows: Anti-vascular activity in human HUVEC cells assessed as reduction in number of loops formed at 6.25 to 50 nM incubated for 6 hrs by Matrigel based inverted fluorescence microscopy. It counts as functional, cell-based. The note with it: dose 6.25-50 nM.
Data set [13] relates to MCF7. Put plainly: Induction of apoptosis in human MCF7 cells assessed as increase in cleaved caspase-9 protein expression at 6.25 to 50 nM incubated for 24 hrs by western blot analysis. It counts as functional, cell-based. The following applies: dose 6.25-50 nM.

Molecules are shown by their SMILES. Active and inactive are the calls of the source. The rule behind the calls is not given here.

Consider `COc1cc(C(=O)n2nc(N)cc2-c2ccc(C)cc2)cc(OC)c1OC`, for which the IC50 in the data set on MCF7 [1] turned out to be 0.04 µM; in the data set on A549 it was 0.39 µM; with HT-29, 0.06 µM. In addition, the IC50 at 48 h in data set [2] worked out at 2.73 µM. Also, the Activity was 53.3% in the data set on MCF7 [3]; 28.3% with MCF7 [4]; 80.2% with MCF7 [5]; 46.7% in the data set on MCF7 [6]; 14.3% with MCF7 [7]; “Dose-Dependent Effect” with MCF7 [9]. In addition, in the data set with HUVEC [11], the Activity result is “Dose-Dependent Effect”. In addition, the outcome with MCF7 [8], with MCF7 [10], in the data set on HUVEC [12] and in the data set with MCF7 [13] was Active.

Broadly, the IC50 is the concentration that inhibits the measured activity by half.
